Data: ChEMBL document CHEMBL6177930, “2-(4-Bromobenzyl) tethered 4-amino aryl/alkyl-5,6,7,8-tetrahydrobenzo[4,5]thieno[2,3-d]pyrimidines: design, synthesis, anticancer assessment via dual topoisomerase-I/II inhibition, and in silico studies” (RSC Med Chem, 2025)
Active and inactive are the calls of the source. The calls are words filed in the database; no cut-off is given here.

How the values were obtained:
FaDu [1] = assay: Induction of autophagy in human FaDu cells assessed as reduction in cell density at 1 to 5 uM measured after 48 hrs by acridine orange staining based fluorescence microscopy analysis; assay type: functional; conditions: dose 1-5 µM
A549 = assay: Antiproliferative activity against human A549 cells assessed as inhibition of cell growth at 10 uM measured after 48 to 72 hrs by MTT assay relative to control; assay type: functional; conditions: time 48-72 hrs
T47D = assay: Antiproliferative activity against human T47D cells assessed as inhibition of cell growth at 10 uM measured after 48 to 72 hrs by MTT assay relative to control; assay type: functional; conditions: time 48-72 hrs
[2] = molecular target: DNA topoisomerase 2-alpha (Homo sapiens) (UniProt P11388); assay: Inhibition of human topoisomerase-II alpha assessed as reduction in decatenation activity using kinetoplast DNA as substrate incubated for 30 mins by EtBr staining based agarose gel electrophoresis method
FaDu [3] = assay: Inhibition of cell migration in human FaDu cells assessed as reduction in wound closure at 5 uM measured after 48 hrs by bright field microscopic analysis relative to control; assay type: functional
FaDu [4] = assay: Induction of morphological changes in human FaDu cells assessed as cell membrane blebbing at 2 to 5 uM incubated for 48 hrs by bright field microscope based analysis; assay type: functional; conditions: dose 2-5 µM
[5] = Antiproliferative activity against human HCC cells assessed as inhibition of cell growth at 10 uM measured after 48 to 72 hrs by MTT assay relative to control; assay type: functional; conditions: time 48-72 hrs
FaDu [6] = assay: Induction of apoptosis in human FaDu cells assessed as nuclear fragmentation at 1 to 5 uM by DAPI staining based analysis; assay type: functional, cell-based; conditions: dose 1-5 µM
MCF7 [7] = assay: Antiproliferative activity against human MCF7 cells assessed as inhibition of cell growth at 10 uM measured after 48 to 72 hrs by MTT assay relative to control; assay type: functional; conditions: time 48-72 hrs
MCF7 [8] = assay: Induction of cell cycle arrest in human MCF7 cells assessed as accumulation of cells at S phase measured after 24 hrs by PI staining based flow cytometry analysis (reference value: 24.7%); assay type: functional
FaDu [9] = assay: Induction of autophagy in human FaDu cells assessed as increase in acidic vesicular organelles measured after 48 hrs by acridine orange staining based fluorescence microscopy analysis; assay type: functional, cell-based; conditions: dose 1-5 µM
FaDu [10] = assay: Induction of apoptosis in human FaDu cells assessed as appearance of deformed cell membrane at 1 to 5 uM by DAPI staining based analysis; assay type: functional; conditions: dose 1-5 µM
FaDu [11] = assay: Inhibition of colony formation in human FaDu cells assessed as reduction in colony formation at 1 to 5 uM incubated for 48 hrs crystal violet staining based analysis (reference value: 62.58%); assay type: functional; conditions: dose 1-5 µM
FaDu [12] = assay: Induction of apoptosis in human FaDu cells assessed as apoptotic bodies at 1 to 5 uM by DAPI staining based analysis; assay type: functional, cell-based; conditions: dose 1-5 µM
FaDu [13] = assay: Antiproliferative activity against human FaDu cells assessed as inhibition of cell growth measured after 48 hrs by MTT assay; assay type: functional, cell-based
[14] = molecular target: T1, Prostaglandin G/H synthase 1 (Ovis aries) (UniProt P05979); assay: Inhibition of ovine COX-1 at 10 uM relative to control
T1 sequence (whole entry): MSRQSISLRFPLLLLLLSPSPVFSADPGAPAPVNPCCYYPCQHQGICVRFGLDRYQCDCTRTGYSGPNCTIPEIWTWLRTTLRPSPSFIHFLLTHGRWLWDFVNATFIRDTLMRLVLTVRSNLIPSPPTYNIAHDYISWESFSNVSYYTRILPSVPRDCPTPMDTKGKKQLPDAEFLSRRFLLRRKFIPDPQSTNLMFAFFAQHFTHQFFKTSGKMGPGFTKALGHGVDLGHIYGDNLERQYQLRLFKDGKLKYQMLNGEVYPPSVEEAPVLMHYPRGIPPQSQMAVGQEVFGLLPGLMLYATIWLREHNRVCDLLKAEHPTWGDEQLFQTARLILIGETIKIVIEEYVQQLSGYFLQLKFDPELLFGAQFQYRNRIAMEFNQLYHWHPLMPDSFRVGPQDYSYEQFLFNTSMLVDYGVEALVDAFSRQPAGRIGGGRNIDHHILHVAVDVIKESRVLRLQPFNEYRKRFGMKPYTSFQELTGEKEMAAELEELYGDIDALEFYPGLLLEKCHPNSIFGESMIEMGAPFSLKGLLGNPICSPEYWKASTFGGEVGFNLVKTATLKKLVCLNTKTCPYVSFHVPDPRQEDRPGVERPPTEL

MCF7 [15] = assay: Induction of cell cycle arrest in human MCF7 cells assessed as accumulation of cells at G0/G1 phase measured after 24 hrs by PI staining based flow cytometry analysis (reference value: 45.2%); assay type: functional
FaDu [16] = assay: Induction of morphological changes in human FaDu cells assessed as appearance of rounded cells at 2 to 5 uM incubated for 48 hrs by bright field microscope based analysis; assay type: functional, cell-based; conditions: dose 2-5 µM
FaDu [17] = assay: Induction of morphological changes in human FaDu cells assessed as appearance of rounded cells at 1 uM incubated for 48 hrs by bright field microscope based analysis; assay type: functional, cell-based
FaDu [18] = assay: Induction of morphological changes in human FaDu cells assessed as reduction in cell density at 1 uM incubated for 48 hrs by bright field microscope based analysis; assay type: functional
FaDu [19] = assay: Inhibition of cell migration in human FaDu cells assessed as reduction in wound closure at 1 uM measured after 48 hrs by bright field microscopic analysis relative to control; assay type: functional
FaDu [20] = assay: Antiproliferative activity against human FaDu cells assessed as inhibition of cell growth measured after 72 hrs by MTT assay; assay type: functional, cell-based
[21] = molecular target: T2, Prostaglandin G/H synthase 2 (Homo sapiens) (UniProt P35354); assay: Inhibition of human recombinant COX-2 at 10 uM relative to control
T2 sequence (whole entry): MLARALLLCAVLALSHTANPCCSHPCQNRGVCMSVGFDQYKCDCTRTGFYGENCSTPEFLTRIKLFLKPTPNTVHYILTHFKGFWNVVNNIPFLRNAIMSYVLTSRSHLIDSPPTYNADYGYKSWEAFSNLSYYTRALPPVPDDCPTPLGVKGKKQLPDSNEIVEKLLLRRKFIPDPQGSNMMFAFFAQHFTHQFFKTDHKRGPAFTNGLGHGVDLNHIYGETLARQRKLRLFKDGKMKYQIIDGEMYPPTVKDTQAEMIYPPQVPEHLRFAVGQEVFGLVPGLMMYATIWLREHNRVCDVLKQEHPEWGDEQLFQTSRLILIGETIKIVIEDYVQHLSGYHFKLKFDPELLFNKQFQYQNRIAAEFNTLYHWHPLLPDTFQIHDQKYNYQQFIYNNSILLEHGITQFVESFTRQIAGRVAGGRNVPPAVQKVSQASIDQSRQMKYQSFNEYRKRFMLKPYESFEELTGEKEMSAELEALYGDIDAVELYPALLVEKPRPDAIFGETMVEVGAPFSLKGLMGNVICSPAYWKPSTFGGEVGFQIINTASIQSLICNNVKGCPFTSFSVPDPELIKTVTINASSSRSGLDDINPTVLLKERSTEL

FaDu [22] = assay: Upregulation of cleaved caspase-3 level in human FaDu cells measured after 48 hrs by Western blot analysis; assay type: functional, cell-based; conditions: dose 1-5 µM

Chain of DNA topoisomerase 2-alpha (Homo sapiens) (P11388 whole entry): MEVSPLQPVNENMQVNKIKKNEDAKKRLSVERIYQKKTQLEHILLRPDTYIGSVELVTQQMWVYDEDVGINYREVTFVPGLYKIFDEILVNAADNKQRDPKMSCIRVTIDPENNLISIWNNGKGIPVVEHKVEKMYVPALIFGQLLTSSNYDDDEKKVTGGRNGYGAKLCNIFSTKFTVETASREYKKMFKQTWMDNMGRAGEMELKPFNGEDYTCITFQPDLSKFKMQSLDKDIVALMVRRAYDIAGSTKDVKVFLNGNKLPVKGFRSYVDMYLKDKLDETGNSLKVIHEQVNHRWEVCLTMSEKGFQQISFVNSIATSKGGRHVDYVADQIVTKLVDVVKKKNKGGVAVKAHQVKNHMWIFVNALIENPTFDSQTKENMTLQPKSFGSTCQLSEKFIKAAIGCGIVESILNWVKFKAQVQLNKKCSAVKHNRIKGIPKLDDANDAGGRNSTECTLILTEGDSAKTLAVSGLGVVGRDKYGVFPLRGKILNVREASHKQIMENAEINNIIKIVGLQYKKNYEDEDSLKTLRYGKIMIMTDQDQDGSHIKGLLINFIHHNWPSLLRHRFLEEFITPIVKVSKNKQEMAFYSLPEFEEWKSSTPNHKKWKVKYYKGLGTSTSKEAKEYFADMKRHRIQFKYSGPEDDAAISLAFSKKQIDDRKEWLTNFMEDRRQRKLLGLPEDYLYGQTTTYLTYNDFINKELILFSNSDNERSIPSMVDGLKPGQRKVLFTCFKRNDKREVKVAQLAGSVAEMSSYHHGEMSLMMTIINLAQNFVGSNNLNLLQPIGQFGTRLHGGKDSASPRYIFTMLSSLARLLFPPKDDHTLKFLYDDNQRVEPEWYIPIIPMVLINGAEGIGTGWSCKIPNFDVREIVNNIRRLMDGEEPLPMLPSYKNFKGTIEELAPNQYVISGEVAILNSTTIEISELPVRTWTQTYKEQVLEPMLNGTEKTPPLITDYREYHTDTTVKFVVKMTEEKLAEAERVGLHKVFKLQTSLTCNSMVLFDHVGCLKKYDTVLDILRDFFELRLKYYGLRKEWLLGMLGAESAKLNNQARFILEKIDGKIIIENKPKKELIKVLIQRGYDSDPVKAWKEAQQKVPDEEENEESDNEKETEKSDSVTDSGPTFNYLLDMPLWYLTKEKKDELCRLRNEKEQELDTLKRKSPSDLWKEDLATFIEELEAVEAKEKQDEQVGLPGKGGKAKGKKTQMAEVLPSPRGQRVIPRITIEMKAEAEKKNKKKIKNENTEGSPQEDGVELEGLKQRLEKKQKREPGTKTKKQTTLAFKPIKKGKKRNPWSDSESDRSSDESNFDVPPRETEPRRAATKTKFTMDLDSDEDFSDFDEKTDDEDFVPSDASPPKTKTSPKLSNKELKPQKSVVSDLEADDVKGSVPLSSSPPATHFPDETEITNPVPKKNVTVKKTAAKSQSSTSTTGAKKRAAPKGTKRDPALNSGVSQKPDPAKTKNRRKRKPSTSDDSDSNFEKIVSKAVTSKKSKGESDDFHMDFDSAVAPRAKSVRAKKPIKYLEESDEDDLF

Structure (SMILES): Brc1ccc(Cc2nc(N3CCN(c4ccncc4)CC3)c3c4c(sc3n2)CCCC4)cc1
- Activity (FaDu [1]): Active
- inhibition at 10 µM (A549): 39.2%
- inhibition at 10 µM (T47D): 83.4%
- inhibition [2]: Active; Compound Showed Higher Inhibition Activity Than Etoposide
- inhibition at 5 µM (FaDu [3]): 24.4%
- Activity (FaDu [4]): Active
- inhibition at 10 µM [5]: 2.28%
- Activity (FaDu [6]): Active
- inhibition at 10 µM (MCF7 [7]): 15.1%
- Activity (MCF7 [8]): 17.8%
- Activity (FaDu [9]): Dose-dependent-effect
- Activity (FaDu [10]): Active
- inhibition (INH) (FaDu [11]): 19.35%
- Activity (FaDu [12]): Active
- IC50 (FaDu [13]): 3.06 µM
- Activity (FaDu [13]; dose 0.5-50 µM): Dose-dependent-effect
- inhibition [14]: 46.5%
- Activity (MCF7 [15]): 20.2%
- Activity (FaDu [16]): Active
- Activity (FaDu [17]): Active
- Activity (FaDu [18]): Active
- inhibition at 1 µM (FaDu [19]): 64.7%
- IC50 (FaDu [20]): 1.73 µM
- Activity (FaDu [20]; dose 0.5-50 µM): Dose-dependent-effect
- inhibition [21]: 75.7%
- Activity (FaDu [22]): Dose-dependent-effect
